target: T1, Sodium/glucose cotransporter 2 (Homo sapiens) (UniProt P31639); experiment: (§1) Inhibition of human SGLT2 expressed in CHO-K1 cells assessed as reduction in [14C]-alpha-methylglucopyranoside uptake after 2 hrs by liquid scintillation counting; assay type: cell-based
T1 sequence (whole entry): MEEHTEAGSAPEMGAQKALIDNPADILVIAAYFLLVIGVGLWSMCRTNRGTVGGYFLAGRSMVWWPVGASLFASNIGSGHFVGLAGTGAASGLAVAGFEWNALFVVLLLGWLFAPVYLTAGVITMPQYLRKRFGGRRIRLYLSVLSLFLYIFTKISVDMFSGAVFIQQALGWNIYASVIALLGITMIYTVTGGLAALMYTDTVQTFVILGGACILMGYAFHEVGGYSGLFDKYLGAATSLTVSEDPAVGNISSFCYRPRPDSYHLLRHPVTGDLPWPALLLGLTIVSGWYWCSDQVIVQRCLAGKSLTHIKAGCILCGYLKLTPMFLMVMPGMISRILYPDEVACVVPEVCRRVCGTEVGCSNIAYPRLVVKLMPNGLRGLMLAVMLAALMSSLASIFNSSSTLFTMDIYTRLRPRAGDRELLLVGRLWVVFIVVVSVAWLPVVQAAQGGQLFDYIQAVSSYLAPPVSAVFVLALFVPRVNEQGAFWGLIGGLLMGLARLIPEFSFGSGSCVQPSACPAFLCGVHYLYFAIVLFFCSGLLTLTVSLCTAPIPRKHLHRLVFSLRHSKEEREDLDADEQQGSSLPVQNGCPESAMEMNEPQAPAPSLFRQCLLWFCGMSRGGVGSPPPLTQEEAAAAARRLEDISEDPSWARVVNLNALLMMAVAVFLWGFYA

inhibition	Structure (SMILES)
Dose-dependent effect	CC(C)(C)C(O)Cn1c(=N)n(Cc2ccccc2)c2ccccc21 (stereo not drawn)
Dose-dependent effect	COc1ccc(NC(=S)NNC(=O)c2cc(-c3ccccc3)sc2N)cc1
Dose-dependent effect	COc1cc(C(Nc2cccc(C)n2)c2ccc3ccc(C)nc3c2O)cc(OC)c1OC (stereo not drawn)

target: T2, Sodium/glucose cotransporter 2 (Homo sapiens, UniProt P31639); experiment: as §1; assay type: cell-based
T2 sequence (P31639 whole entry): T1 sequence (whole entry)

Structure (SMILES)	EC50
CCc1ccc(Cc2cc([C@@H]3O[C@H](CO)[C@@H](O)[C@H](O)[C@H]3O)ccc2C)cc1	0.012 µM
OC[C@H]1O[C@@H](n2cc(Cc3ccc(C4CC4)cc3)c3c(F)cccc32)[C@H](O)[C@@H](O)[C@@H]1O	0.0019 µM
OC[C@H]1O[C@@H](n2cc(Cc3ccc(C4CC4)cc3)c3c(Cl)cccc32)[C@H](O)[C@@H](O)[C@@H]1O	0.0023 µM
CC(C)(C)C(O)Cn1c(=N)n(Cc2ccccc2)c2ccccc21 (stereo not drawn)	3.85 µM
CC(C)(C)C(O)Cn1c(=N)n(CCN2CCCCC2)c2ccccc21 (stereo not drawn)	> 50 µM
COc1ccc(NC(=S)NNC(=O)c2cc(-c3ccccc3)sc2N)cc1	8.98 µM
C=CCn1c(=N)n(CC(O)C(C)(C)C)c2ccccc21 (stereo not drawn)	40.4 µM
Cn1cc(CCc2ccc3c(c2)CCO3)c2c(O[C@@H]3O[C@H](CO)[C@@H](O)[C@H](O)[C@H]3O)cccc21	0.067 µM
OC[C@H]1O[C@@H](n2cc(Cc3ccc(C4CC4)cc3)c3c(F)cc(F)cc32)[C@H](O)[C@@H](O)[C@@H]1O	0.0028 µM
N=c1n(Cc2ccccc2)c2ccccc2n1CC(O)c1ccco1 (stereo not drawn)	34.7 µM
N=c1n(CCO)c2ccccc2n1Cc1ccccc1	> 50 µM
CCOc1ccc(Cc2cc([C@@H]3O[C@H](CO)[C@@H](O)[C@H](O)[C@H]3O)ccc2C)cc1	0.0011 µM

Other lines, results leading:

EC50	Structure (SMILES)
4.6 µM	N=c1n(Cc2ccccc2)c2ccccc2n1CC(O)COc1ccccc1 (stereo not drawn)
0.024 µM	OC[C@H]1O[C@@H](Oc2cccc3[nH]cc(CCc4ccc5c(c4)CCO5)c23)[C@H](O)[C@@H](O)[C@@H]1O
11 µM	N=c1n(Cc2ccc(Cl)cc2)c2ccccc2n1CC(O)c1ccco1 (stereo not drawn)
> 50 µM	N=c1n(CC(=O)O)c2ccccc2n1Cc1ccc(Cl)cc1
19.1 µM	N=c1n(Cc2ccccc2)c2ccccc2n1CC(O)c1cccs1 (stereo not drawn)
31.1 µM	N=c1n(CCO)c2ccccc2n1Cc1ccc(Cl)cc1
5.92 µM	COc1cc(C(Nc2cccc(C)n2)c2ccc3ccc(C)nc3c2O)cc(OC)c1OC (stereo not drawn)
16.2 µM	COc1ccc(C(O)Cn2c(=N)n(Cc3ccccc3)c3ccccc32)cc1 (stereo not drawn)
